Measurements as given in ChEMBL document CHEMBL3286108, “Novel arylsulfonamide derivatives with 5-HT₆/5-HT₇ receptor antagonism targeting behavioral and psychological symptoms of dementia” (J Med Chem, 2014).
Active and inactive are the calls of the source. The rule behind the calls is not given here.

Columns and labels:
[1] = biological target: Muscarinic acetylcholine receptor M5 (Homo sapiens, UniProt P08912); experiment: Displacement of [3H]4-DAMP from human recombinant M5 receptor expressed in CHO cells; format: cell-based
[2] = biological target: Muscarinic acetylcholine receptor M2 (Homo sapiens) (UniProt P08172); experiment: Displacement of [3H]AF-DX384 from human recombinant M2 receptor expressed in CHO cells at 1 uM; format: cell-based
[3] = biological target: Muscarinic acetylcholine receptor M4 (Homo sapiens) (UniProt P08173); experiment: Displacement of [3H]4-DAMP from human recombinant M4 receptor expressed in CHO cells at 1 uM; format: cell-based
[4] = biological target: T1, 5-hydroxytryptamine receptor 2A (Homo sapiens, UniProt P28223); experiment: Antagonist activity at human recombinant 5-HT2A receptor assessed as inhibition of serotonin-induced inositol phosphate accumulation; format: functional
[5] = biological target: Alpha-1A adrenergic receptor (Homo sapiens) (UniProt P35348); experiment: Antagonist activity at human recombinant alpha1A adrenoceptor assessed as inhibition of epinephrine-induced intracellular Ca2+ release; format: functional, cell-based
Rattus norvegicus [6] = experiment: Antipsychotic-like activity in po dosed Wistar rat assessed as inhibition of MK-801-induced hyperlocomotion administered 45 mins prior to MK-801 challenge measured 60 mins post-drug administration; format: functional; conditions: read-out: MED
Rattus norvegicus [7] = experiment: Antipsychotic-like activity in po dosed Wistar rat assessed as inhibition of DOI-induced head twitches measured after 60 mins; format: functional; conditions: 1 h, read-out: MED
Rattus norvegicus [8] = experiment: Antidepressant-like activity in Wistar rat assessed as decrease in immobility time at 0.3 to 3 mg/kg, po after 60 mins by forced swimming test; format: functional; conditions: dose mg/kg 0.3-3
Rattus norvegicus [9] = experiment: Induction of catalepsy in Wistar rat up to 100 mg/kg, po by bar test; format: organism-based; set-up: dose 100 mg/kg, route oral; conditions: in vivo
Rattus norvegicus [10] = experiment: Toxicity in Wistar rat assessed as spontaneous locomotor activity up to 100 mg/kg, po measured after 15 mins; format: organism-based; set-up: dose 100 mg/kg, route oral; conditions: in vivo, 0.25 h
[11] = biological target: T2, 5-hydroxytryptamine receptor 7 (Homo sapiens, UniProt P34969); experiment: biochemical; format: cell-based, CHO-K1
[12] = biological target: T1, 5-hydroxytryptamine receptor 2A; experiment: biochemical; format: cell-based, CHO-K1
[13] = biological target: T3, Muscarinic acetylcholine receptor M1 (Homo sapiens) (UniProt P11229); experiment: Displacement of [3H]pirenzepine from human recombinant M1 receptor expressed in CHO cells at 1 uM; format: cell-based
T3 sequence (whole entry): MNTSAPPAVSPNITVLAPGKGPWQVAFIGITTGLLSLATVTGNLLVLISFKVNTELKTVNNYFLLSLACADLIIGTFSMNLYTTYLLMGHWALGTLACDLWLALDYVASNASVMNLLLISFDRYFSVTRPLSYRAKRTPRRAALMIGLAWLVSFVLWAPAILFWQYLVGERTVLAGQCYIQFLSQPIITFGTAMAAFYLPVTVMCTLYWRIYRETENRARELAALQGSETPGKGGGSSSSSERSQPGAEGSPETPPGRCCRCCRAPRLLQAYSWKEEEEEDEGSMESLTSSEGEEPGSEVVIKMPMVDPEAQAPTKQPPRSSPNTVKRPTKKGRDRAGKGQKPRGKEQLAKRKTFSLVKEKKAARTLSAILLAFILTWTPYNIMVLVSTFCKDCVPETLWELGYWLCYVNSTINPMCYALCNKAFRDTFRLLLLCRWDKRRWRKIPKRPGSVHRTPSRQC

[14] = biological target: T4, 5-hydroxytryptamine receptor 6 (Homo sapiens, UniProt P50406); experiment: Antagonist activity at human recombinant 5-HT6 receptor expressed in CHO-K1 cells assessed as inhibition of serotonin-induced response treated 15 to 30 mins before agonist challenge by luminescence analysis; format: cell-based
[15] = biological target: T2, 5-hydroxytryptamine receptor 7; experiment: Antagonist activity at human 5-HT7 receptor expressed in CHO-K1 cells assessed as inhibition of serotonin-induced cAMP accumulation after 60 mins by TR-FRET immunoassay; format: functional, cell-based
[16] = biological target: T1, 5-hydroxytryptamine receptor 2A; experiment: Antagonist activity at human recombinant 5-HT2A receptor expressed in CHO-K1 cells assessed as inhibition of alpha-methyl serotonin-induced response treated 15 to 30 mins before agonist challenge by luminescence analysis; format: cell-based
[17] = biological target: T4, 5-hydroxytryptamine receptor 6; experiment: Agonist activity at human recombinant 5-HT6 receptor expressed in CHO-K1 cells by luminescence analysis; format: cell-based
[18] = biological target: T2, 5-hydroxytryptamine receptor 7; experiment: Agonist activity at human 5-HT7 receptor expressed in CHO-K1 cells assessed as cAMP accumulation after 60 mins by TR-FRET immunoassay; format: functional, cell-based
[19] = biological target: T1, 5-hydroxytryptamine receptor 2A; experiment: Agonist activity at human recombinant 5-HT2A receptor expressed in CHO-K1 cells by luminescence analysis; format: cell-based
D(2) dopamine receptor [20] = biological target: T5, D(2) dopamine receptor (Homo sapiens, UniProt P14416); experiment: Agonist activity at human recombinant D2 receptor expressed in CHO-K1 cells by luminescence analysis; format: cell-based
D(3) dopamine receptor = D(3) dopamine receptor (Homo sapiens, UniProt P35462); experiment: Displacement of [3H]methylspiperone from human recombinant D3 receptor expressed in CHO cells; format: cell-based
D(4) dopamine receptor = D(4) dopamine receptor (Homo sapiens, UniProt P21917); experiment: Displacement of [3H]methylspiperone from human recombinant D4 receptor expressed in CHO cells; format: cell-based
Histamine H1 receptor = Histamine H1 receptor (Homo sapiens, UniProt P35367); experiment: biochemical; format: cell-based, HEK293
[21] = biological target: Muscarinic acetylcholine receptor M1 (Homo sapiens, UniProt P11229); experiment: biochemical; format: cell-based, CHO
[22] = biological target: T6, Muscarinic acetylcholine receptor M3 (Homo sapiens, UniProt P20309); conditions: CHO, 1 uM
Target sequence in this assay (P20309 whole entry, looked up): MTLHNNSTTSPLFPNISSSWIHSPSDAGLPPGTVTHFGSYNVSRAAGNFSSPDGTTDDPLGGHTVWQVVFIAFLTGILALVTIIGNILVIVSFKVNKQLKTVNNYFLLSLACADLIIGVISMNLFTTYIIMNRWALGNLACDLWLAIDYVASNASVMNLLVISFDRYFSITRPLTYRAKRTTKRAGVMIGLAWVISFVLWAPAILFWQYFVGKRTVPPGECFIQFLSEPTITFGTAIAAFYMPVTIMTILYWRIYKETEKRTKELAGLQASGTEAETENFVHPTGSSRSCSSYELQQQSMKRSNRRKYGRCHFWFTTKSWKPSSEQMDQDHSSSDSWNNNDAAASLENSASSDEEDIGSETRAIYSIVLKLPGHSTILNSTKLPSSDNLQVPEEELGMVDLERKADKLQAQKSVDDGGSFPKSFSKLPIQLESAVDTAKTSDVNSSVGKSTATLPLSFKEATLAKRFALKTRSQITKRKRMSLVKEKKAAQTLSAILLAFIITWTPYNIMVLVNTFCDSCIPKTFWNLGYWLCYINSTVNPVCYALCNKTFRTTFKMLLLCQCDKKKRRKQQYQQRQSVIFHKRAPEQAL

[23] = biological target: Muscarinic acetylcholine receptor M5 (Homo sapiens) (UniProt P08912); conditions: CHO, 1 uM
[24] = biological target: T6, Muscarinic acetylcholine receptor M3; experiment: biochemical
Target sequence in this assay (P20309 whole entry): as the sequence (P20309 whole entry, looked up) above

[25] = biological target: Muscarinic acetylcholine receptor M4 (Homo sapiens, UniProt P08173); experiment: biochemical
[26] = biological target: Sodium-dependent serotonin transporter (Homo sapiens, UniProt P31645); experiment: biochemical
[27] = biological target: T4, 5-hydroxytryptamine receptor 6; experiment: biochemical
D(2) dopamine receptor [28] = biological target: T5, D(2) dopamine receptor; experiment: biochemical
[29] = biological target: T4, 5-hydroxytryptamine receptor 6; experiment: biochemical; remark: listed apart in the source
[30] = biological target: T2, 5-hydroxytryptamine receptor 7; experiment: biochemical
[31] = biological target: T1, 5-hydroxytryptamine receptor 2A; experiment: biochemical
[32] = biological target: 5-hydroxytryptamine receptor 1A (Homo sapiens, UniProt P08908); experiment: biochemical
[33] = biological target: 5-hydroxytryptamine receptor 2C (Homo sapiens, UniProt P28335); experiment: biochemical
D(2) dopamine receptor [34] = biological target: T5, D(2) dopamine receptor; experiment: biochemical; remark: listed apart in the source
D(1A) dopamine receptor = D(1A) dopamine receptor (Homo sapiens, UniProt P21728); experiment: biochemical
[35] = biological target: Alpha-1A adrenergic receptor (Homo sapiens, UniProt P35348); experiment: biochemical
[36] = biological target: Alpha-2C adrenergic receptor (Homo sapiens, UniProt P18825); experiment: biochemical
[37] = biological target: Muscarinic acetylcholine receptor M2 (Homo sapiens, UniProt P08172); experiment: biochemical
[38] = biological target: T4, 5-hydroxytryptamine receptor 6

T4 sequence (P50406 whole entry): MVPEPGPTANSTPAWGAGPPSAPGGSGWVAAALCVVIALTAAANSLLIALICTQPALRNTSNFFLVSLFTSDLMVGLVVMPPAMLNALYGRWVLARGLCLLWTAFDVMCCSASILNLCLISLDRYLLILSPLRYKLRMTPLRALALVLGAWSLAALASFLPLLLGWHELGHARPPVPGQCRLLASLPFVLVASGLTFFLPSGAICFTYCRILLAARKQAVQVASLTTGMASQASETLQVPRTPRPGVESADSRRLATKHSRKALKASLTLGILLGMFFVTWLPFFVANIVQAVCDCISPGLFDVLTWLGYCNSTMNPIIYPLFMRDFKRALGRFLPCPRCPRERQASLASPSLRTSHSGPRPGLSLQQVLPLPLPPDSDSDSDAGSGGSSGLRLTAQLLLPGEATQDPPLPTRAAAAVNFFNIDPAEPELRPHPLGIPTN
T2 sequence (P34969 whole entry): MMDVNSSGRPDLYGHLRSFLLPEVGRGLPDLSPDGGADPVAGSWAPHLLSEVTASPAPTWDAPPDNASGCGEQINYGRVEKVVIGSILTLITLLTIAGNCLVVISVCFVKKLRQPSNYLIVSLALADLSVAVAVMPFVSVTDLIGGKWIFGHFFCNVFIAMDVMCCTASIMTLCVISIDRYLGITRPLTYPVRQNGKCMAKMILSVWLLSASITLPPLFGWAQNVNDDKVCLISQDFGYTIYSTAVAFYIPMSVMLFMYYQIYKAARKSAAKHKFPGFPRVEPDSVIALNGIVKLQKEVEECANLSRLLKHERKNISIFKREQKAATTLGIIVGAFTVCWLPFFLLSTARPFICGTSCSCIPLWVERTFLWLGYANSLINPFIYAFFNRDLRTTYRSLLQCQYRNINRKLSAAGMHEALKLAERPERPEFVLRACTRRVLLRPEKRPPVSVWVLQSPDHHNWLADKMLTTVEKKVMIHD
T1 sequence (P28223 whole entry): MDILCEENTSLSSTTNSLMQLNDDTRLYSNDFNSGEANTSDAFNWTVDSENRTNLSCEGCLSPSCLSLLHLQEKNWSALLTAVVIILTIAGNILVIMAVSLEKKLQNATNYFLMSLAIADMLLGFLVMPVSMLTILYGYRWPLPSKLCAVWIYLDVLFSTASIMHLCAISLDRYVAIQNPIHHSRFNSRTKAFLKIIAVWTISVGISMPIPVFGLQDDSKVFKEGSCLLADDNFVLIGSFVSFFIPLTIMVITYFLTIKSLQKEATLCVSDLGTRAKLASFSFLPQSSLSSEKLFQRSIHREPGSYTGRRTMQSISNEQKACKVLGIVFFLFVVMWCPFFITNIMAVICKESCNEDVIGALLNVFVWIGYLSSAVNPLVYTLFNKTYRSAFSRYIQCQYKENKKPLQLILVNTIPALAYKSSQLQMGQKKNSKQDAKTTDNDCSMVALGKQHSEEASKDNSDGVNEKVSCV
T5 sequence (P14416 whole entry): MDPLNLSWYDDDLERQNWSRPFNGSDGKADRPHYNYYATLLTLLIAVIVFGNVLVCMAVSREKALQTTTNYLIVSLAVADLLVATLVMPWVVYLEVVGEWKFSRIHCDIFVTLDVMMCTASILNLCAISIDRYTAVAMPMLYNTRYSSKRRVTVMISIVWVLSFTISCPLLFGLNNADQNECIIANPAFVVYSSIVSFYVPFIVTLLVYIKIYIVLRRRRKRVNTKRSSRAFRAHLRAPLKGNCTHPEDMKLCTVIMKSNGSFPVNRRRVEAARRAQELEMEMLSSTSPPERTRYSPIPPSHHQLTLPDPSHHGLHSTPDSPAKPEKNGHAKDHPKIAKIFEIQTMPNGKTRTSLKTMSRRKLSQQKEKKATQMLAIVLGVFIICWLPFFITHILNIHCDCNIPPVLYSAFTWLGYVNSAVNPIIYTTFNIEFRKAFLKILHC
Sodium-dependent serotonin transporter, sequence (P31645 whole entry): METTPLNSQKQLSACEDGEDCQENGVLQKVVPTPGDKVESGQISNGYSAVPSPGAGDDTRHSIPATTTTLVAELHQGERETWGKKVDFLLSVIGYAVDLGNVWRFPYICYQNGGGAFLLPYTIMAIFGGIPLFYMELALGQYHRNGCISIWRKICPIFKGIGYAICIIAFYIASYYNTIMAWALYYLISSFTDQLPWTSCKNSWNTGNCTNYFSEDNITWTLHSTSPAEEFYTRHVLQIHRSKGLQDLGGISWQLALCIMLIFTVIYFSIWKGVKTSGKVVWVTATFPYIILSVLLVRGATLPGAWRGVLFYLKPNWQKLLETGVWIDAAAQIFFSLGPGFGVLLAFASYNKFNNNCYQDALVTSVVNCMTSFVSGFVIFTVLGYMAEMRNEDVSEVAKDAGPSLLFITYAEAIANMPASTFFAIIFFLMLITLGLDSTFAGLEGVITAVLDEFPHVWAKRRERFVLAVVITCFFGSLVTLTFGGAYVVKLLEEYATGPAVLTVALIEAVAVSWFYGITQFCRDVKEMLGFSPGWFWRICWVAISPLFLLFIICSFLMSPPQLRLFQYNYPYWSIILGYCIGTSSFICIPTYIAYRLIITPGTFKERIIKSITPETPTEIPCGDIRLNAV
D(3) dopamine receptor, sequence (P35462 whole entry): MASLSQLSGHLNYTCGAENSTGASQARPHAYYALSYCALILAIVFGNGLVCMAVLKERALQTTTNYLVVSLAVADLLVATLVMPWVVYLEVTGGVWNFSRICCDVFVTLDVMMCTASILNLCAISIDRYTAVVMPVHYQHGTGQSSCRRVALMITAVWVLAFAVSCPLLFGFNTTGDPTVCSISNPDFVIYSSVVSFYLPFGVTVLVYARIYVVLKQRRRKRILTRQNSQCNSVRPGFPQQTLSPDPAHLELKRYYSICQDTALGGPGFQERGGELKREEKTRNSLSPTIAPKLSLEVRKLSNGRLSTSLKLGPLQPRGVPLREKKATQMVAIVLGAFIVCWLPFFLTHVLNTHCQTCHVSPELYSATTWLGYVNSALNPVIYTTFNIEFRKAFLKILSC
D(4) dopamine receptor, sequence (P21917 whole entry): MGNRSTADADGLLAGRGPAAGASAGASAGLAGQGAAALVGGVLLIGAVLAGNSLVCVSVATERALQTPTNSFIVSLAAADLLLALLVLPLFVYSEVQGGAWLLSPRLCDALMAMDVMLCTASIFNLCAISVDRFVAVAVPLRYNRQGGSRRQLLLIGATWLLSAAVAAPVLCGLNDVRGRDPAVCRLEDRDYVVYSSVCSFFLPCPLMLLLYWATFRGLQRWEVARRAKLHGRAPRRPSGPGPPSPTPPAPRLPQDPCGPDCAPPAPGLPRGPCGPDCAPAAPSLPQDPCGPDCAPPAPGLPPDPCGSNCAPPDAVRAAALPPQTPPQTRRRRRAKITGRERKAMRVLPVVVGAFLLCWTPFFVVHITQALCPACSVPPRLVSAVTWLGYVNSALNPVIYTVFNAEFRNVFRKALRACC
Alpha-2C adrenergic receptor, sequence (P18825 whole entry): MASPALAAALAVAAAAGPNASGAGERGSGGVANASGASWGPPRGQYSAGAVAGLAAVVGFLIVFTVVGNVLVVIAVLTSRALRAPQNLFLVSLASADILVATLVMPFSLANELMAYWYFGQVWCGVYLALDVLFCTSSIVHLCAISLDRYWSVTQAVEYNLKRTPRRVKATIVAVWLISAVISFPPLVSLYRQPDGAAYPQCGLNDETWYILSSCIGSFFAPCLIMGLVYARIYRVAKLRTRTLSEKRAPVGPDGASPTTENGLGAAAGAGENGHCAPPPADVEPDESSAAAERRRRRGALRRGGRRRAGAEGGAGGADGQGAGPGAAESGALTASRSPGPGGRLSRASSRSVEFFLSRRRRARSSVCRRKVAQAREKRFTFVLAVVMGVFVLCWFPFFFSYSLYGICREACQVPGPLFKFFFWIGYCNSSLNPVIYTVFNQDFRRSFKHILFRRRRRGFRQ
5-hydroxytryptamine receptor 1A, sequence (P08908 whole entry): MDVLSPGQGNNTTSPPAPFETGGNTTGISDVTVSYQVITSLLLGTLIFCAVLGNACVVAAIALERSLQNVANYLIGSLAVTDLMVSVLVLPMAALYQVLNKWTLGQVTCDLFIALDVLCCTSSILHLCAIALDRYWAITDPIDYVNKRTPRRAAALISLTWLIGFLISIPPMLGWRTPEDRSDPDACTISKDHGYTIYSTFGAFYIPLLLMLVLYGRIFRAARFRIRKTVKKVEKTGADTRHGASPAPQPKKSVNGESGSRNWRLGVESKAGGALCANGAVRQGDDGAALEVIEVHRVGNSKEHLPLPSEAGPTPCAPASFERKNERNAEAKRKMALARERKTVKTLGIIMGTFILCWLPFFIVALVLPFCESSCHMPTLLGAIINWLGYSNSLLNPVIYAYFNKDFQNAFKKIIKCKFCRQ

O=S(=O)(NCCCCN1CCC(c2noc3cc(F)ccc23)CC1)c1cc2ccccc2s1
Ki [1]: > 1000 nM
inhibition [2]: < 40%
inhibition [3]: < 40%
Kb [4]: 4.8 nM
Kb [5]: 1.8 nM
minimal effective dose (Rattus norvegicus [6]): 10 mg/kg
minimal effective dose (Rattus norvegicus [7]): 3 mg/kg
inhibition (INH) (Rattus norvegicus [8]): 20%
Activity (Rattus norvegicus [9]): Non-toxic
Activity (Rattus norvegicus [10]): Non-toxic
Ki [11]: 1.6 nM
Ki [12]: 0.6 nM
inhibition [13]: 21%
Kb [14]: 9.9 nM
Kb [15]: 7.8 nM
Kb [16]: 8.8 nM
Activity [17]: inactive
Activity [18]: inactive
Activity [19]: inactive
Activity (D(2) dopamine receptor [20]): inactive
Ki (D(3) dopamine receptor): 1.1 nM
Ki (D(4) dopamine receptor): 14 nM
Ki (Histamine H1 receptor): 69 nM
Ki [21]: > 1000 nM
inhibition [22]: < 40%
inhibition [23]: < 40%
Ki [24]: > 1000 nM
Ki [25]: > 1000 nM
IC50 [26]: > 1000 nM
Ki [27]: 6.5 nM
Ki (D(2) dopamine receptor [28]): 2 nM
Ki [29]: 4.1 nM
Ki [30]: 1.9 nM
Ki [31]: 0.5 nM
Ki [32]: 110 nM
Ki [33]: 540 nM
Ki (D(2) dopamine receptor [34]): 1.8 nM
Ki (D(1A) dopamine receptor): 3.3 nM
Ki [35]: 0.8 nM
Ki [36]: 1.9 nM
Ki [37]: > 1000 nM
Kb [38]: 16 nM
